Legend:
[1] = tested on: CHO; test: Cytotoxicity against CHO cells by MTT assay; assay type: cell-based; conditions: Cricetulus griseus
[2] = Inhibition of NP-40-induced beta-haematin formation after 5 to 6 hrs hrs by UV-vis spectroscopic analysis; assay type: physicochemical

IC50 [2] [µM]	Compound	IC50 [1] [nM]
	CC[C@H]1CN2CCc3cc(OC)c(OC)cc3[C@@H]2C[C@@H]1C[C@H]1NCCc2cc(OC)c(OC)cc21 [EMETINE]	41
6.8	CCN(CC)Cc1cc(Nc2ccnc3cc(Cl)ccc23)ccc1O	
18.2	CCN(CC)CCCC(C)Nc1ccnc2cc(Cl)ccc12 (stereo not drawn) [CHLOROQUINE]	

From ChEMBL document CHEMBL2434909, “In vitro antimalarial activity, β-haematin inhibition and structure-activity relationships in a series of quinoline triazoles” (Eur J Med Chem, 2013)
